Assay results: ChEMBL document CHEMBL1201862, “PubChem BioAssay data set” (2004)
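Tested at 5 concentrations; 48 h exposure; 96-well plates; endpoints linearly interpolated, else capped at highest concentration. Abbreviation: GI50, concentration required for 50% inhibition of growth.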 The source made the active and inactive calls. Rule as the data show it: active = GI50 up to about 1.1 µM and inactive = higher.

Experiments:
Assay in all cases: NCI-60 cell line screen, 48 h
[1] = system: EKVX
[2] = system: OVCAR-3
[3] = system: A549
[4] = system: SK-MEL-5
[5] = system: COLO 205
[6] = system: HCC 2998
[7] = system: Malme-3M
[8] = system: MDA-MB-231
[9] = system: UACC-62
[10] = system: MDA-MB-435
[11] = system: SNB-19
[12] = system: LOX IMVI
[13] = system: OVCAR-5
[14] = system: SW-620
[15] = system: MDA-N
[16] = system: CCRF-CEM
[17] = system: A498
[18] = system: KM12

SMILES	GI50 [1]	GI50 [2]	GI50 [3]	GI50 [4]	GI50 [5]	GI50 [6]	GI50 [7]	GI50 [8]	GI50 [9]	GI50 [10]	GI50 [11]	GI50 [12]	GI50 [13]	GI50 [14]	GI50 [15]	GI50 [16]	GI50 [17]	GI50 [18]
O=[N+]([O-])c1ccc(/C=C/c2cc(-c3ccccc3)nc3ccc4ccccc4c23)cc1	> 100 µM (inactive)	> 100 µM (inactive)	> 100 µM (inactive)	> 100 µM (inactive)	> 100 µM (inactive)	> 100 µM (inactive)	> 100 µM (inactive)	> 100 µM (inactive)	> 100 µM (inactive)	> 100 µM (inactive)	> 100 µM (inactive)	> 100 µM (inactive)	> 100 µM (inactive)	> 100 µM (inactive)	> 100 µM (inactive)	> 100 µM (inactive)	> 100 µM (inactive)	> 100 µM (inactive)
Cc1nc2cccc(F)c2c(=O)n1-c1nnc(C2CC2)s1	> 10 µM (inactive)	> 10 µM (inactive)	> 10 µM (inactive)	> 10 µM (inactive)	> 10 µM (inactive)	> 10 µM (inactive)	–	> 10 µM (inactive)	> 10 µM (inactive)	> 10 µM (inactive)	> 10 µM (inactive)	> 10 µM (inactive)	> 10 µM (inactive)	> 10 µM (inactive)	> 10 µM (inactive)	> 10 µM (inactive)	–	> 10 µM (inactive)
O=C1CCN/C(=N\C(=O)C(F)(F)F)N1CCc1c[nH]c2ccccc12	> 100 µM (inactive)	> 100 µM (inactive)	> 100 µM (inactive)	> 100 µM (inactive)	> 100 µM (inactive)	> 100 µM (inactive)	> 100 µM (inactive)	> 100 µM (inactive)	> 100 µM (inactive)	> 100 µM (inactive)	> 100 µM (inactive)	> 100 µM (inactive)	> 100 µM (inactive)	> 100 µM (inactive)	> 100 µM (inactive)	> 100 µM (inactive)	> 100 µM (inactive)	> 100 µM (inactive)
Fc1ccc(NCn2nc(COc3ccccc3Cl)n(/N=C/c3ccc(-c4ccc(Cl)cc4Cl)o3)c2=S)cc1Cl	> 100 µM (inactive)	37.9 µM (inactive)	–	7.62 µM (inactive)	–	–	–	44.4 µM (inactive)	–	41.4 µM (inactive)	–	23.9 µM (inactive)	> 100 µM (inactive)	36.1 µM (inactive)	38.5 µM (inactive)	25.5 µM (inactive)	16.1 µM (inactive)	26 µM (inactive)
COc1cc(C2c3cc4c(cc3[C@@H](Nc3ccccc3)C3COC[C@H]23)OCO4)cc(OC)c1O (some centres not stated)	15.4 µM (inactive)	–	0.35 µM (active)	2.3 µM (inactive)	3.28 µM (inactive)	5.83 µM (inactive)	–	1.64 µM (inactive)	–	7.13 µM (inactive)	1.69 µM (inactive)	–	2.36 µM (inactive)	1.81 µM (inactive)	7.35 µM (inactive)	0.235 µM (active)	–	2.84 µM (inactive)
COc1ccc2ccc3c(c2c1)CN1CCc2cc(OC)c(OC)cc2C1C3 (configuration not stated)	> 100 µM (inactive)	> 100 µM (inactive)	–	> 100 µM (inactive)	> 100 µM (inactive)	> 100 µM (inactive)	> 100 µM (inactive)	–	> 100 µM (inactive)	–	> 100 µM (inactive)	> 100 µM (inactive)	> 100 µM (inactive)	> 100 µM (inactive)	–	> 100 µM (inactive)	–	> 100 µM (inactive)
CC1C(=O)CC[C@@]2(C)C(=O)CCCC12O (some centres not stated)	> 100 µM (inactive)	> 100 µM (inactive)	> 100 µM (inactive)	> 100 µM (inactive)	> 100 µM (inactive)	> 100 µM (inactive)	> 100 µM (inactive)	> 100 µM (inactive)	> 100 µM (inactive)	> 100 µM (inactive)	> 100 µM (inactive)	> 100 µM (inactive)	> 100 µM (inactive)	> 100 µM (inactive)	> 100 µM (inactive)	–	> 100 µM (inactive)	> 100 µM (inactive)
